Calls of active or inactive are those of the source.

What is called EC50 is the concentration giving half of the maximal effect. A word on the IC50: it is the point on the concentration scale where inhibition reaches its midpoint. The term AC50 denotes the concentration at which the activity in the assay is half-maximal.

Test [1] has as its target Aryl hydrocarbon receptor (Homo sapiens, UniProt P35869). Put plainly: Luminescence-based cell-based high throughput dose response assay for activators of the Aryl Hydrocarbon Receptor (AHR). [Related pubchem assays: 2796 (Primary screen (AHR activators in singlicate)), 2845 (Confirmation screen (AHR activators in triplicate)), 434939 (Counterscreen (PXR activators in triplicate)), 2804 (Summary (AHR activators))]. The test is classed as ADME. For orientation: Counterscreens check selectivity or assay interference.

Test [2] can be described thus: M. tuberculosis growth inhibition, HTS (AID 449762). Type of test: functional.
Test [3] has as its system HT-1080. Put plainly: HT1080 cell viability loss – fluorescence readout (AID 620). The test is classed as functional, cell-based. The conditions noted are these: Homo sapiens.
Test [4] addresses Luciferin 4-monooxygenase (Photinus pyralis, UniProt P08659). Put plainly: Counter Screen for Luciferase-based Assay Positives. [Related pubchem assays: 620, 618, 411 ].
A short description of test [5]: Luminescence Cell-Based Dose Response HTS to Identify Inhibitors of 5'UTR Stem-Loop Driven Prion Protein mRNA Translation in H4 Neuroglioblastoma Cells. [Related pubchem assays: 1827 (Project Summary), 1813 (Primary HTS)]. Type of test: functional.
A short description of test [6]: luciferase reporter signal suppression in cells – H4 neuroglioma cells, luminescence, dose response (AID 1990). Type of test: functional, cell-based.
Test [7] can be described thus: alpha-synuclein stem-loop luciferase translation blockers – H4 neuroglioma cells, luminescence, confirmation (AID 1988). The test is classed as functional, cell-based.
Test [8] addresses Dual specificity protein phosphatase 3 (Homo sapiens, UniProt P51452). Put plainly: SAR VHR1 Fluorescent Assay for In Vitro dose response studies Set 2. [Related pubchem assays (depositor defined):AID1654, AID1661, AID1878]. The test is classed as functional.
The target of test [9] is T1, Tyrosine-protein phosphatase non-receptor type 7 (Homo sapiens, UniProt P35236).
T1 sequence (P35236 whole entry): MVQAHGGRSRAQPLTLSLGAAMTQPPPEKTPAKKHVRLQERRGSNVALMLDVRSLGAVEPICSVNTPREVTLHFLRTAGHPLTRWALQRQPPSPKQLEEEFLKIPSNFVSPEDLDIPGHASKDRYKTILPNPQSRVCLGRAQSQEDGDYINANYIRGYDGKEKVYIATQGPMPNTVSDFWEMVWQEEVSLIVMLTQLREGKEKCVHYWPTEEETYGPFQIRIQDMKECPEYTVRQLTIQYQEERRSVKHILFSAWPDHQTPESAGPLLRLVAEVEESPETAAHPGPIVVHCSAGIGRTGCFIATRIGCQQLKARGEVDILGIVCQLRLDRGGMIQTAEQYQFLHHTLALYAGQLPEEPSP
Put plainly: SAR analysis of chemical inhibitors of HePTP using a Fluorescent assay - Set 2. [Related pubchem assays (depositor defined):AID1059, AID1077, AID1661, AID2085, AID521]. Type of test: functional.

In test [10] the target is T2, Hexokinase HKDC1 (Homo sapiens, UniProt Q2TB90).
T2 sequence (Q2TB90 whole entry): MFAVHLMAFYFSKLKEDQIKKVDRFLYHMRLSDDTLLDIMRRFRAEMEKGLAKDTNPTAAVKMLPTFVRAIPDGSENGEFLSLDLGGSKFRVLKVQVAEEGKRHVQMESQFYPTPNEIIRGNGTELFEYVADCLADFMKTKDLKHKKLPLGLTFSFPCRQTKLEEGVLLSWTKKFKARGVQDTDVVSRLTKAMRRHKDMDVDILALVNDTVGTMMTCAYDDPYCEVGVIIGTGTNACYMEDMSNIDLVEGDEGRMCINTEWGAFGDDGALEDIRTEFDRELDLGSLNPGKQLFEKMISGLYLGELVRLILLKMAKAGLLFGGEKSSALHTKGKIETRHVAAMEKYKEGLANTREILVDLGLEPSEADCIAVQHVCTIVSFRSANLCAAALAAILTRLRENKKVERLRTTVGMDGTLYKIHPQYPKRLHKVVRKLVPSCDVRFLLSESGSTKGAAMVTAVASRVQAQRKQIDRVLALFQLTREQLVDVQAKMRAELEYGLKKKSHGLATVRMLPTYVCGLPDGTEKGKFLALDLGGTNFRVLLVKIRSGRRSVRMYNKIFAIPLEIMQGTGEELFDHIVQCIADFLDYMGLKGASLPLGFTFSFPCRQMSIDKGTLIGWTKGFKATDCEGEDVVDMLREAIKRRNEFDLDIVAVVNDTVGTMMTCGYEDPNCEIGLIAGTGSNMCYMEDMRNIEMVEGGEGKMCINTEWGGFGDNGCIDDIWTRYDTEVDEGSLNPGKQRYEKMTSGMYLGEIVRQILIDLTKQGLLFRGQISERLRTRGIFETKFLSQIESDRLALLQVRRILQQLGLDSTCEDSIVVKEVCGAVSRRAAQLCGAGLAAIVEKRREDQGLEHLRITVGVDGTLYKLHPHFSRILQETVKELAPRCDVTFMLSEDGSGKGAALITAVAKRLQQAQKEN
Put plainly: inhibition of HKDC1 glucose phosphorylation – biochemical, W721R variant, dose response (AID 504729). Type of test: functional.

Test [11] concerns the target T3, Bcl-2-related protein A1 (Mus musculus, UniProt Q07440).
T3 sequence (Q07440 whole entry): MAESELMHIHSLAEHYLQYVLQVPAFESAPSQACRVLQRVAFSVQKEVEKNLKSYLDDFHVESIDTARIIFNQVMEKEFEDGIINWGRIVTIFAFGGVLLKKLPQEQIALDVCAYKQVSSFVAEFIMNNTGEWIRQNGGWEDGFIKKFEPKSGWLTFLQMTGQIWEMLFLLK
Put plainly: Bfl-1 binding inhibitors, SAR follow-up, biochemical, fluorescence polarization (AID 1070). Background: Polarisation of emitted light reports the rotation of a fluorescent probe.

Test [12] has as its target Glyceraldehyde-3-phosphate dehydrogenase (Homo sapiens, UniProt P04406).
Test [13] addresses T3, Bcl-2-related protein A1. Put plainly: small-molecule antagonists of Bfl-1/BH3 interaction – biochemical, TR-FRET, mouse Bfl-1, confirmation (AID 621).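 Note: TR-FRET binding of GST-Bfl-1 to FITC-labelled Bid peptide via terbium antibody.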 On the technique in general: Time-resolved FRET reads energy transfer from a long-lived donor to a nearby acceptor.
Test [14] addresses T4, Estrogen receptor beta (Homo sapiens, UniProt Q92731).
Test [15] deals with T4, Estrogen receptor beta. Put plainly: blockers of SRC-3 recruitment to ERβ – biochemical, ELISA, streptavidin-HRP readout, orthogonal assay, confirmation (AID 1060).
The target in test [16] is Estrogen receptor (Homo sapiens, UniProt P03372).
Estrogen receptor, sequence (P03372 whole entry): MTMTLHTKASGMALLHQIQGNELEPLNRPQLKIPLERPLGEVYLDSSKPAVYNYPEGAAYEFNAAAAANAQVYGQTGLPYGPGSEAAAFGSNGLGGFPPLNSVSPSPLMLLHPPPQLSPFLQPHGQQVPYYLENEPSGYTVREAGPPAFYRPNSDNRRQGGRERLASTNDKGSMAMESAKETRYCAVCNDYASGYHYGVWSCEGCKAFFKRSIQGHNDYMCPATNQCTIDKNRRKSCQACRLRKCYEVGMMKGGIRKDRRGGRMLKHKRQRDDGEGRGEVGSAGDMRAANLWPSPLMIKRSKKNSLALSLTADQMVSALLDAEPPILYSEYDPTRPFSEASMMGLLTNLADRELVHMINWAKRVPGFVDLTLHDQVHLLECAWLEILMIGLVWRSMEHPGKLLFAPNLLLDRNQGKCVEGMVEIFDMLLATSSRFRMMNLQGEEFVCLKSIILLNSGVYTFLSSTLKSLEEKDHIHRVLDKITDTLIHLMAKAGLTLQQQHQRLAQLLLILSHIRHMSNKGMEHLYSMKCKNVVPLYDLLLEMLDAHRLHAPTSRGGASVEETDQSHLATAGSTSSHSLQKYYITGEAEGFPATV
Test [17] has as its target Cytochrome P450 3A4 (Homo sapiens, UniProt P08684). To be noted: Potency.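 Note: confirmatory qHTS run detecting inhibitors and substrates of CYP3A4.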

T4 sequence (Q92731 whole entry): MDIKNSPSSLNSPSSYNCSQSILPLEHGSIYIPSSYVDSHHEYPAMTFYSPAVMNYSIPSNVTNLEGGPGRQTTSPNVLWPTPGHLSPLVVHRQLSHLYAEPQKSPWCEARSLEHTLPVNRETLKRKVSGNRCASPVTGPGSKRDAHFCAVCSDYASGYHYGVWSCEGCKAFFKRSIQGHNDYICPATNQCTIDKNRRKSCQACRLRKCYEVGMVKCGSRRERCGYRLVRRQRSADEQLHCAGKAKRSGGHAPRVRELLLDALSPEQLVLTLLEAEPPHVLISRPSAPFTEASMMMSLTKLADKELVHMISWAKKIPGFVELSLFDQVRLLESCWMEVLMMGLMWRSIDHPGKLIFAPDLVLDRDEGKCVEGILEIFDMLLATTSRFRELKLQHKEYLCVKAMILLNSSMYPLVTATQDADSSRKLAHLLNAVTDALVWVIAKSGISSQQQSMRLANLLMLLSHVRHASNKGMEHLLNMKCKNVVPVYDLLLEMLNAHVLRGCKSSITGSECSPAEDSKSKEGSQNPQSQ
Luciferin 4-monooxygenase, sequence (P08659 whole entry): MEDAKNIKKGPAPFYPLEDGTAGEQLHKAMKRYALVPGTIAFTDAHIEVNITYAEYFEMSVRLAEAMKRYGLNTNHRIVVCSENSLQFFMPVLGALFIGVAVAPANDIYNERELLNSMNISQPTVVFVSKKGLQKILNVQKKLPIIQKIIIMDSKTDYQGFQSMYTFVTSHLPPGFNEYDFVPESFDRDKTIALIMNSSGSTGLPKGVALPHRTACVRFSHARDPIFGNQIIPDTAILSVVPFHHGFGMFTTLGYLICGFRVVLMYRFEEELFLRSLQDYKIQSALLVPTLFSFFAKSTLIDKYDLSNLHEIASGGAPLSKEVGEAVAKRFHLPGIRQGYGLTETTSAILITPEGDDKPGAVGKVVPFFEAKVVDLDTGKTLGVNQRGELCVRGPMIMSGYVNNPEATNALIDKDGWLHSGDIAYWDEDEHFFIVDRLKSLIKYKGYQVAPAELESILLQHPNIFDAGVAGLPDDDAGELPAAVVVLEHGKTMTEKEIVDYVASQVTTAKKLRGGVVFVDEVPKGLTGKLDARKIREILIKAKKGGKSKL
Glyceraldehyde-3-phosphate dehydrogenase, sequence (P04406 whole entry): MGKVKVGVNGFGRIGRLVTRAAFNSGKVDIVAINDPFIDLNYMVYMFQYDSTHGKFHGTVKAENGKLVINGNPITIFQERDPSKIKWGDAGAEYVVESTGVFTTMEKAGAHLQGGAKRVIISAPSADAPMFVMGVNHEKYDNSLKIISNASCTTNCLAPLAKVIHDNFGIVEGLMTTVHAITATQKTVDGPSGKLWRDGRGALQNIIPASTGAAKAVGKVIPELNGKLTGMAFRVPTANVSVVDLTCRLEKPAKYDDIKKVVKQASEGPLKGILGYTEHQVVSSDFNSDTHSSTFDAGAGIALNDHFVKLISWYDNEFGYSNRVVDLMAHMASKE
Aryl hydrocarbon receptor, sequence (P35869 whole entry): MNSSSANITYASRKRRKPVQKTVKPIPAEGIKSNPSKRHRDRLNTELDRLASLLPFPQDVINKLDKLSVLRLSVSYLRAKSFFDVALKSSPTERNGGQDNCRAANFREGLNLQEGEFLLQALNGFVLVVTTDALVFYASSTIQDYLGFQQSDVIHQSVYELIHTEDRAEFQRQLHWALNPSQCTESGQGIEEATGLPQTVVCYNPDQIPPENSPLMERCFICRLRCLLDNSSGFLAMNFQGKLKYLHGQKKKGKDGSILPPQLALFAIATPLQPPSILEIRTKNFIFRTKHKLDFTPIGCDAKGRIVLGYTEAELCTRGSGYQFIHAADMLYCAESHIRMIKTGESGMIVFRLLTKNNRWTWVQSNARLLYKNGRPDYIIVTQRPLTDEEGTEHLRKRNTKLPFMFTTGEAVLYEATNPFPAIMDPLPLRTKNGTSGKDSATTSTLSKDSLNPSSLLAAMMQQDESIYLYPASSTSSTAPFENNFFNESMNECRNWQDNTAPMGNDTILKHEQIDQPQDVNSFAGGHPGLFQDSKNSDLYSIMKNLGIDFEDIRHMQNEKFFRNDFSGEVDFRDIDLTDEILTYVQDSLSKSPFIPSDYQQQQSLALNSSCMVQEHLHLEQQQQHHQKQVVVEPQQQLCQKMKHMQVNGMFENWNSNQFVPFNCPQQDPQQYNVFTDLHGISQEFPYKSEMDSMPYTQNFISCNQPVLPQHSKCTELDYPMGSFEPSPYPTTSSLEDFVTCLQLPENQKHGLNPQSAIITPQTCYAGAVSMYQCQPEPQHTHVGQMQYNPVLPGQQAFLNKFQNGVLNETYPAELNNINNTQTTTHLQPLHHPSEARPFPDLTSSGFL
Dual specificity protein phosphatase 3, sequence (P51452 whole entry): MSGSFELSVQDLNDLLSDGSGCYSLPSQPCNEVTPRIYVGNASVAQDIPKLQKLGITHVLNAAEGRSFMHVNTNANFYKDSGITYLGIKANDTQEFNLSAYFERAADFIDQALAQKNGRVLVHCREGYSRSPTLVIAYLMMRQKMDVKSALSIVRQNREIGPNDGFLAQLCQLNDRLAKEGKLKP
Cytochrome P450 3A4, sequence (P08684 whole entry): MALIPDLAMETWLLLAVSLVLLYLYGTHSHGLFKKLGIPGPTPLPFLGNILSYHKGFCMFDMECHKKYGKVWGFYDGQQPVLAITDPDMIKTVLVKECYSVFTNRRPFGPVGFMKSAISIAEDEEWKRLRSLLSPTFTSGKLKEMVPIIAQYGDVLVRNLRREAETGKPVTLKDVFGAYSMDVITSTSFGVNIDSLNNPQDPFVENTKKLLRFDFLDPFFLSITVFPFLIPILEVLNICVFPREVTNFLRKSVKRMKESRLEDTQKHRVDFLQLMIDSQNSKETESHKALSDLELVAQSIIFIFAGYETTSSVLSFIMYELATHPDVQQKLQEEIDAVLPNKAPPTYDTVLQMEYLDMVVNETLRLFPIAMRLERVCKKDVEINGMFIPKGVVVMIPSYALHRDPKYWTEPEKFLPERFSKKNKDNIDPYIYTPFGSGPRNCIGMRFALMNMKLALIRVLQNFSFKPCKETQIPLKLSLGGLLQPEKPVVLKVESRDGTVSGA

In the case of `CN(C)c1nc(N)nc(-c2nc3ccccc3s2)n1`, the EC50 in test [1] is 0.845 µM (active).

For `Cc1ccc(/N=C/C2=C(O)C3(C)CCC2C3(C)C)cc1C` (centres undefined), the IC50 in [2] was > 100 µM (active).

Take `CC(=O)Nc1ccc(OC(=O)N2CCCCC2)cc1`: the EC50 was > 50 µM (not active) in [3] and 3.67 µM (active) in [4].

For `NS(=O)(=O)c1ccc(NC(=S)N2CCN(Cc3ccc(Cl)c(Cl)c3)CC2)cc1`, the EC50 in [5] is > 120 µM (not active); in test [6] it was 34.5 µM (active); in [7] it was > 120 µM (not active). The figures for the IC50 in test [8] and in test [9] were > 100 µM (inactive) and 48.4 µM (active), respectively.

In the case of `COc1ccc(-n2ncc3c(NCC(C)C)ncnc32)cc1`, the EC50 in test [3] is > 50 µM (not active); in test [4] it was 1.17 µM (active).

In the case of `COc1ccc(NC(=O)CSc2ccc(-c3cccnc3)nn2)c(OC)c1`, in test [10], the half-inhibitory concentration (IC50) was 17.8 µM (active).

With `O=C1C(Cl)=C(N2CCN(Cc3ccccc3)CC2)C(=O)N1c1ccc(Cl)c(Cl)c1`, the values for the half-inhibitory concentration (IC50) in [11], in test [12] and in test [13] were 1.62 µM (active), > 100 µM (not active) and 1.64 µM (active), respectively.

Take `CC(=N)/C(C#N)=C(/O)CSc1nnc(-c2ccc(OC(F)F)cc2)o1`: the IC50 in test [14] was 9.26 µM (active); in [15] it was 18.6 µM (not active); in test [16], 46.6 µM (not active).

Turning to `CC(C)=CCOc1cc2oc(=O)ccc2cc1O` [PRENYLETIN], the AC50 in [17] was 39.8 µM (inconclusive).

(Values after ChEMBL document CHEMBL1201862, “PubChem BioAssay data set” (2004).)
